Source: patent US7750040B2, “Thiophene derivatives” (priority 2004, dated 2010)

Biological target: recombinant human S1P1 receptor (Homo sapiens, UniProt P21453)
Experiment: GTPγS assay to determine EC50 values
Format: biochemical
Settings: 35S-GTPγS binding, membrane preparations of CHO cells expressing recombinant human S1P1 receptor
Method: The pH was 7.4. Test compounds are dissolved and diluted in 100% DMSO and pre-incubated at room temperature for 30 min in 150 μl of the above assay buffer, in the absence of ^35S-GTPγS. After addition of 50 μl of ^35S-GTPγS, the assay is incubated for 1 h at room temperature. […] Membrane-bound ^35S-GTPγS is measured with a TopCount from Packard Biosciences.
Specific binding is determined by subtracting non-specific binding from maximal binding. Maximal binding is the amount of cpm bound to the Multiscreen plate in the presence of 10 μM of S1P. Non-specific binding is the amount of binding in the absence of an agonist in the assay.

Sequence of recombinant human S1P1 receptor (P21453 whole entry): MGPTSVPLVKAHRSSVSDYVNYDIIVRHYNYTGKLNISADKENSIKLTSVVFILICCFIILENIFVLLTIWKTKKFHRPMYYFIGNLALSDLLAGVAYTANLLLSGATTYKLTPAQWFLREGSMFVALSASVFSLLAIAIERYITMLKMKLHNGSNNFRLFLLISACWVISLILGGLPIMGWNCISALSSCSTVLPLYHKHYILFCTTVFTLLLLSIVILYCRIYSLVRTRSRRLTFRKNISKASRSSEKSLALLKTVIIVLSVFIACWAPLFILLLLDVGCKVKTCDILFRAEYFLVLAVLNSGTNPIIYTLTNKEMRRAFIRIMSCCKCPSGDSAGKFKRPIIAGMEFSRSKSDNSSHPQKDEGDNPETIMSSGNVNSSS

**Q.** How did the EC50 turn out when `COc1cc(OC[C@@H](O)CO)ccc1CNC(=O)c1sc(C)c2c1C[C@@H]1[C@H]2C1(C)C` [Example 7, (1aS,5aR)-1,1,2-Trimethyl-1,1a,5,5a-tetrahydro-3-thia-cyclopropa[a]pentalene-4-carboxylic acid 4-((S)-2,3-dihydroxy-propoxy)-2-methoxy-benzylamide] was run?
**A.** 183 nM

**Q.** With `Cc1sc(C(=O)CNc2ccc(CCO)cc2)c2c1[C@H]1[C@@H](C2)C1(C)C` [Example 163, 2-[4-(2-Hydroxy-ethyl)-phenylamino]-1-((1aS,5aR)-1,1,2-trimethyl-1,1a,5,5a-tetrahydro-3-thia-cyclopropa[a]pentalen-4-yl)-ethanone] as the compound, how does the EC50 read?
**A.** 3 nM

**Q.** With `Cc1cc(C)cc(NCC(=O)c2sc(C)c3c2C[C@@H]2[C@H]3C2(C)C)c1` [Example 157, 2-(3,5-Dimethyl-phenylamino)-1-((1aS,5aR)-1,1,2-trimethyl-1,1a,5,5a-tetrahydro-3-thia-cyclopropa[a]pentalen-4-yl)-ethanone] as the compound, how does the EC50 read?
**A.** 9 nM

**Q.** With `Cc1cc(CNC(=O)c2sc(C)c3c2C[C@@H]2[C@H]3C2(C)C)cc(C)c1OC[C@@H](O)CO` [Example 5, (1aS,5aR)-1,1,2-trimethyl-1,1a,5,5a-tetrahydro-3-thia-cyclopropa[a]pentalene-4-carboxylic acid 4-((S)-2,3-dihydroxy-propoxy)-3,5-dimethyl-benzylamide] as the compound, how does the EC50 read?
**A.** 75 nM

**Q.** For `COc1cc(OCCF)ccc1CNC(=O)c1sc(C)c2c1C[C@@H]1[C@H]2C1(C)C` [Example 36, (1aS,5aR)-1,1,2-Trimethyl-1,1a,5,5a-tetrahydro-3-thia-cyclopropa[a]pentalene-4-carboxylic acid 4-(2-fluoro-ethoxy)-2-methoxy-benzylamide], which EC50 is on record?
**A.** 300 nM

**Q.** For `Cc1cc(CCC(=O)c2sc(C)c3c2C[C@@H]2[C@H]3C2(C)C)cc(Cl)c1OC[C@H](O)CO` [Example 71, 3-[3-Chloro-4-((R)-2,3-dihydroxy-propoxy)-5-methyl-phenyl]-1-((1aS,5aR)-1,1,2-trimethyl-1,1a,5,5a-tetrahydro-3-thia-cyclopropa[a]pentalen-4-yl)-propan-1-one], which EC50 is on record?
**A.** 1 nM

**Q.** `CCc1sc(C(=O)CCc2cc(C)c(OC[C@@H](O)CO)c(C)c2)c2c1[C@@H]1[C@H](C2)C1(C)C` [Example 137, 3-[4-((S)-2,3-Dihydroxy-propoxy)-3,5-dimethyl-phenyl]-1-((1aR,5aS)-2-ethyl-1,1-dimethyl-1,1a,5,5a-tetrahydro-3-thia-cyclopropa[a]pentalen-4-yl)-propan-1-one] was tested. Which EC50 did it give?
**A.** 0.6 nM

**Q.** `COc1cc(OC[C@@H](O)CO)ccc1CCC(=O)c1sc(C)c2c1C[C@@H]1[C@H]2C1(C)C` [Example 49, 3-[4-((S)-2,3-Dihydroxy-propoxy)-2-methoxy-phenyl]-1-((1aS,5aR)-1,1,2-trimethyl-1,1a,5,5a-tetrahydro-3-thia-cyclopropa[a]pentalen-4-yl)-propan-1-one] was tested. Which EC50 did it give?
**A.** 2 nM

**Q.** How did the EC50 turn out when `Cc1sc(C(=O)CCc2ccc(OC[C@@H](O)CO)cc2Cl)c2c1[C@H]1[C@@H](C2)C1(C)C` [Example 81, 3-[2-Chloro-4-((S)-2,3-dihydroxy-propoxy)-phenyl]-1-((1aS,5aR)-1,1,2-trimethyl-1,1a,5,5a-tetrahydro-3-thia-cyclopropa[a]pentalen-4-yl)-propan-1-one] was run?
**A.** 3 nM

**Q.** For `CCc1sc(C(=O)CCc2cc(C)c(OCCCO)c(C)c2)c2c1[C@@H]1[C@H](C2)C1(C)C` [Example 139, 1-((1aR,5aS)-2-Ethyl-1,1-dimethyl-1,1a,5,5a-tetrahydro-3-thia-cyclopropa[a]pentalen-4-yl)-3-[4-(3-hydroxy-propoxy)-3,5-dimethyl-phenyl]-propan-1-one], which EC50 is on record?
**A.** 4 nM

**Q.** With `Cc1cc(CCC(=O)c2sc(C)c3c2C[C@@H]2[C@H]3C2(C)C)cc(Cl)c1OCC(C)O` (stereo partly drawn) [Example 74, 3-[3-Chloro-4-(2-hydroxy-propoxy)-5-methyl-phenyl]-1-((1aS,5aR)-1,1,2-trimethyl-1,1a,5,5a-tetrahydro-3-thia-cyclopropa[a]pentalen-4-yl)-propan-1-one] as the compound, how does the EC50 read?
**A.** 5 nM

**Q.** With `COc1cc(OCC(C)O)ccc1CNC(=O)c1sc(C)c2c1C[C@@H]1[C@H]2C1(C)C` (mixture of isomers) [Example 24, (1aS,5aR)-1,1,2-trimethyl-1,1a,5,5a-tetrahydro-3-thia-cyclopropa[a]pentalene-4-carboxylic acid 4-((R/S)-2-hydroxy-propoxy)-2-methoxy-benzylamide] as the compound, how does the EC50 read?
**A.** 164 nM

**Q.** With `COc1ccccc1CCC(=O)c1sc(C)c2c1C[C@@H]1[C@H]2C1(C)C` [Example 48, 3-(2-methoxy-phenyl)-1-((1aS,5aR)-1,1,2-trimethyl-1,1a,5,5a-tetrahydro-3-thia-cyclopropa[a]penta-len-4-yl)-propan-1-one] as the compound, how does the EC50 read?
**A.** 16 nM

Test system: circulating lymphocytes
Experiment: Assessment of in vivo efficacy: circulating lymphocytes after oral administration
Settings: 3 h after oral administration of 30 mg/kg, normotensive male Wistar rats, compared to vehicle group; mean±SEM
Method: The efficacy of the compounds of Formula (I) is assessed by measuring the circulating lymphocytes after oral administration of 30 mg/kg of a compound of Formula (I) to normotensive male Wistar rats. The animals are housed in climate-controlled conditions with a 12 h-light/dark cycle, and have free access to normal rat chow and drinking water. […] Full blood is subjected to hematology using Advia Hematology system (Bayer Diagnostics, Zürich, Switzerland).
All data are presented as mean±SEM. Statistical analyses are performed by analysis of variance (ANOVA) using Statistica (StatSoft) and the Student-Newman-Keuls procedure for multiple comparisons. The null hypothesis is rejected when p<0.05.

**Q.** `Cc1cc(CCC(=O)c2sc(C)c3c2C[C@@H]2[C@H]3C2(C)C)ccc1OC[C@@H](O)CO` [Example 86, 3-[4-((S)-2,3-Dihydroxy-propoxy)-3-methyl-phenyl]-1-((1aS,5aR)-1,1,2-trimethyl-1,1a,5,5a-tetrahydro-3-thia-cyclopropa[a]pentalen-4-yl)-propan-1-one] was tested. Which Lymphocyte counts did it give?
**A.** −47 ± 4%

**Q.** With `Cc1cc(CCC(=O)c2sc(C)c3c2C[C@@H]2[C@H]3C2(C)C)cc(C)c1OC[C@@H](O)CO` [Example 51, 3-[4-((S)-2,3-Dihydroxy-propoxy)-3,5-dimethyl-phenyl]-1-((1aS,5aR)-1,1,2-trimethyl-1,1a,5,5a-tetrahydro-3-thia-cyclopropa[a]pentalen-4-yl)-propan-1-one] as the compound, how does the Lymphocyte counts read?
**A.** −44 ± 4%

**Q.** With `COc1cc(OC[C@@H](O)CO)ccc1CNC(=O)c1sc(C)c2c1C[C@@H]1[C@H]2C1(C)C` [Example 7, (1aS,5aR)-1,1,2-Trimethyl-1,1a,5,5a-tetrahydro-3-thia-cyclopropa[a]pentalene-4-carboxylic acid 4-((S)-2,3-dihydroxy-propoxy)-2-methoxy-benzylamide] as the compound, how does the Lymphocyte counts read?
**A.** −46 ± 3%

**Q.** For `COc1cc(OCC(C)O)ccc1CNC(=O)c1sc(C)c2c1C[C@@H]1[C@H]2C1(C)C` (mixture of isomers) [Example 24, (1aS,5aR)-1,1,2-trimethyl-1,1a,5,5a-tetrahydro-3-thia-cyclopropa[a]pentalene-4-carboxylic acid 4-((R/S)-2-hydroxy-propoxy)-2-methoxy-benzylamide], which Lymphocyte counts is on record?
**A.** −40 ± 4%

**Q.** How did the Lymphocyte counts turn out when `Cc1sc(C(=O)CCc2ccc(OC[C@@H](O)CO)c(Cl)c2)c2c1[C@H]1[C@@H](C2)C1(C)C` [Example 75, 3-[3-Chloro-4-((S)-2,3-dihydroxy-propoxy)-phenyl]-1-((1aS,5aR)-1,1,2-trimethyl-1,1a,5,5a-tetrahydro-3-thia-cyclopropa[a]pentalen-4-yl)-propan-1-one] was run?
**A.** −57 ± 5%
